≈ marks a conversion by molar mass, not a printed value. Read-outs that look alike come from different tables or passages of the source.
Columns and labels:
L. donovani amastigotes = test: INMAC assay: intramacrophage L. donovani in differentiated THP-1 cells; assay type: cell-based, Leishmania donovani; settings: for loss of potency: INMAC, relative to compound 4; for IC50 / EC50: Leishmania donovani; for IC50: THP-1, read-out: LdInMac pIC50 (converted); for LdInMac pIC50: supplementary csv
Protocol: (§1) Intramacrophage L. donovani Assay. This assay was conducted as previously described, except for […]

THP-1 cells = test: THP-1 host cell read-out of the INMAC assay; assay type: cell-based; settings: for EC50 / IC50: Homo sapiens
Protocol: as §1

[1] = Kinetic aqueous solubility by CLND; assay type: physicochemical
Protocol: We had successfully used these criteria in the hit to lead stage to identify compounds for in vivo proof-of-concept studies in another program, which subsequently led to the identification of preclinical candidate DDD853651/GSK3186899 active against CRK12.[7] […] A pharmacokinetic (PK) study was thus performed, dosed at 10 mg/kg po and 3 mg/kg iv. […] With the limited knowledge of the PK/PD drivers for the treatment of VL, we considered this to be a suitable profile for the progression of 4 into a previously reported mouse efficacy model of VL,[6],[7],[17],[18] where it was dosed twice daily at 50 mg/kg ip in order to further maximize exposure and give the best chance of achieving proof-of-concept.
(§2) Intramacrophage L. donovani Assay. This assay was conducted as previously described, except for compound exposure time, which was 96 h instead of 72 h.4
(§3) Intrinsic Clearance. This assay was conducted as previously described.5 Aqueous Solubility. This assay was conducted as previously described.6
(§4) FaSSIF Solublity. This assay was conducted as previously described.5,7
(§5) In vivo Mouse Efficacy Studies. In vivo studies were carried out as previously described, with minor modifications.7 Briefly: Control drug used was Miltefosine (30 mg/kg orally, twice daily for 5 days), vehicle used was 10% (v/v) dimethyl sulfoxide (DMSO), 40% polyethylene glycol 400, and 50% deionized water (10 Ml/kg orally, twice daily for 5 days) and mice were treated with test compound intraperitoneally (50 mg/kg twice daily for 5 days). 5
(§6) All regulated procedures on living animals were carried out under the authority of a project license issued by the Home Office under the Animals (Scientific Procedures) Act 1986, as amended in 2012 (and in compliance with EU Directive EU/2010/63). Infected animals had access to food and water ad libitum and were housed under a 12 hour light/dark photoperiod. Animals used in these experiments were female NMRI and Balb/c mice (Harlan, UK).
(§7) Test compound DDD01008714 was dosed orally (P.O.) at 10 mg free base/kg (dose volume 10 mL/kg; dose vehicle: 10% (vol/vol) dimethyl sulfoxide (DMSO), 40% polyethylene glycol 400 (PEG400) and 50% deionized water) to female NMRI mice (n = 3) or intravenously (I.V.) at 3 mg free base/kg (dose volume 5 mL/kg; dose vehicle: 10% (vol/vol) dimethyl sulfoxide (DMSO) and 90% Saline) to female Balb/c mice (n = 3). Blood samples (10 μL) where taken from the tail vein of […]

[2] = FaSSIF (fasted state simulated intestinal fluid) solubility; assay type: physicochemical
Protocol: as §2, §3, §4, §5, §6, §7

[3] = Mouse liver microsomal intrinsic clearance; assay type: in vitro ADME; settings: for Mouse CLi: mouse liver microsomes; for Cli (mouse, ml/min/g): supplementary csv
Protocol: as §2, §3, §4, §5, §6, §7

[4] = THP-1, Table 2, at least three replicates, SD ≤0.4, read-out: INMAC (pEC50) (converted)
[5] = THP-1, Table 2, read-out: THP-1 (pEC50) (converted)
[6] = THP-1, supplementary csv, read-out: THP1 pIC50 (converted)
[7] = supplementary csv, read-out: Aqueous Solubility
[8] = Table 5, at least three replicates, SD ≤0.4
[9] = Table 5, kinetic, CLND, read-out: Aq. solubility
[10] = THP-1, Table 6, at least three replicates, SD ≤0.4, read-out: INMAC pEC50 (converted)
[11] = THP-1, Table 6, read-out: THP-1 pEC50 (converted)
[12] = Table 6, kinetic, CLND, read-out: Aq. solubility
[13] = THP-1, Table 5, at least three replicates, SD ≤0.4, read-out: INMAC pEC50 (converted)
[14] = THP-1, Table 5, read-out: THP-1 pEC50 (converted)

Molecule | IC50 (L. donovani amastigotes) [µM] | IC50 (THP-1 cells; [6]) [µM] | solubility [1, 7] [µM] | Cli (mouse, ml/min/g) [3] [mL/min/g] | INMAC pEC50 (L. donovani amastigotes; [8]) | Mouse CLi ([3]; Table 5) [mL/min/g] | EC50 (L. donovani amastigotes; [10]) [µM] | EC50 (THP-1 cells; [11]) [µM] | solubility [1, 12] [µM] | solubility at 4 h ([2]; pH 6.5, Table 6) [µM] | Mouse CLi ([3]; Table 6) [mL/min/g] | other results
COc1ccc(NC(=O)N2CCCC2)cc1-c1cn2cc(N3CCOCC3)cnc2n1 [Compound 7, N-(4-Methoxy-3-(6-morpholinoimidazo[1,2-a]pyrimidin-2-yl)phenyl)pyrrolidine-1-carboxamide] | > 50.1 | > 50.1 | ≥ 430 | <0.5 | – | – | – | – | – | – | – | loss of potency (L. donovani amastigotes): > 10 fold; EC50 (L. donovani amastigotes; [4]): > 50.1 µM; EC50 (THP-1 cells; [5]): > 50.1 µM; solubility ([1]; Table 2, kinetic, CLND, read-out: Aq. solubility): ≥ 425 µM; solubility at 4 h ([2]; pH 6.5, Table 2): 83 µM (≈ 35.1 µg/mL); Mouse CLi ([3]; Table 2): <0.5 mL/min/g
O=C(Nc1cccc(-c2cc3cc(-c4ccccc4)cnc3[nH]2)c1)N1CCCC1 [Compound 17, N-(3-(5-Phenyl-1H-pyrrolo[2,3-b]pyridin-2-yl)phenyl)pyrrolidine-1-carboxamide] | > 50.1 | > 50.1 | – | 1.7 | inactive | 1.7 | – | – | – | – | – | EC50 (L. donovani amastigotes; THP-1, read-out: INMAC pEC50 (converted)): > 50.1 µM; EC50 (THP-1 cells; THP-1, read-out: THP-1 pEC50 (converted)): > 50.1 µM; solubility [1, 9]: 3 µM (≈ 1.15 µg/mL)
O=C(Nc1ccc(F)c(-c2ccn3c(N4CCCCC4)cnc3n2)c1)N1CCCC1 [Compound 34, N-(4-Fluoro-3-(3-(piperidin-1-yl)imidazo[1,2-a]pyrimidin-7-yl)phenyl)pyrrolidine-1-carboxamide] | – | 50.1 | 360 (≈ 147 µg/mL) | 8.4 | – | – | 0.501 | 50.1 | 358 (≈ 146 µg/mL) | 32 (≈ 13.1 µg/mL) | 8.4 | –
O=C(Nc1ccc(F)c(-c2ccn3c(-c4ccccc4)cnc3n2)c1)N1CCCC1 [Compound 28, N-(4-Fluoro-3-(3-phenylimidazo[1,2-a]pyrimidin-7-yl)phenyl)pyrrolidine-1-carboxamide] | – | 50.1 | – | 2.5 | – | – | 0.251 | 50.1 | 39 (≈ 15.7 µg/mL) | 7 (≈ 2.81 µg/mL) | 2.5 | solubility ([2]; supplementary csv): 8 µM (≈ 3.21 µg/mL)
CC(=O)N1CCN(c2cnc3nc(-c4cc(NC(=O)N5CCCC5)ccc4F)ccn23)CC1 [Compound 36, N-(3-(3-(4-Acetylpiperazin-1-yl)imidazo[1,2-a]pyrimidin-7-yl)-4-fluorophenyl)pyrrolidine-1-carboxamide] | > 50.1 | > 50.1 | ≥ 380 | 1.5 | – | – | > 50.1 | > 50.1 | ≥ 381 | 1310 (≈ 591 µg/mL) | 1.5 | solubility ([2]; supplementary csv): > 1000 µM
O=C(Nc1cccc(-c2cn3cc(N4CCOCC4)cnc3n2)c1)N1CCCC1 [Compound 6, N-(3-(6-Morpholinoimidazo[1,2-a]pyrimidin-2-yl)phenyl)pyrrolidine-1-carboxamide] | – | > 50.1 | – | 0.8 | – | – | – | – | – | – | – | loss of potency (L. donovani amastigotes): > 10 fold; EC50 (L. donovani amastigotes; [4]): 12.6 µM; EC50 (THP-1 cells; [5]): > 50.1 µM; Mouse CLi ([3]; Table 2): 0.8 mL/min/g
(R)-N-(4-Fluoro-3-(3-(3-methylmorpholino)imidazo[1,2-a]pyrimidin-7-yl)phenyl)pyrrolidine-1-carboxamide [Compound 39] | – | – | – | 2.7 | – | – | – | – | ≥362 | – | 2.7 | INMAC pEC50 (L. donovani amastigotes; Table 6, at least three replicates, SD ≤0.4): 5.9; LdInMac pIC50 (L. donovani amastigotes): 5.9; THP-1 pEC50 (THP-1 cells; Table 6): 4.3; THP1 pIC50 (THP-1 cells; supplementary csv): 4.3; Aqueous Solubility ([1]; supplementary csv): ≥ 360 µM; FaSSIF solubility ([2]; Table 6): 1,322 μM; FaSSIF solubility ([2]; supplementary csv): >1000 µM
CC(C)Nc1cnc2nc(-c3cc(NC(=O)N4CCCC4)ccc3F)ccn12 [Compound 45, N-(4-Fluoro-3-(3-(isopropylamino)imidazo[1,2-a]pyrimidin-7-yl)phenyl)pyrrolidine-1-carboxamide] | – | 50.1 | 120 (≈ 45.9 µg/mL) | 5.2 | – | – | 2.51 | 50.1 | 124 (≈ 47.4 µg/mL) | 13 (≈ 4.97 µg/mL) | 5.2 | –
O=C(Nc1ccc(F)c(-c2cc3nc(N4CCOCC4)cnc3[nH]2)c1)N1CCCC1 [Compound 18, N-(4-Fluoro-3-(2-morpholino-5H-pyrrolo[2,3-b]pyrazin-6-yl)phenyl)pyrrolidine-1-carboxamide] | > 50.1 | – | 10 (≈ 4.1 µg/mL) | – | inactive | 10 | – | – | – | – | – | EC50 (L. donovani amastigotes; [13]): > 50.1 µM; IC50 (THP-1 cells; THP-1, read-out: THP1 pIC50 (converted)): > 50.1 µM; EC50 (THP-1 cells; [14]): > 50.1 µM; solubility [1, 9]: 135 µM (≈ 55.4 µg/mL)
O=C1CN(c2cnc3nc(-c4cc(NC(=O)N5CCCC5)ccc4F)ccn23)CCN1 [Compound 37, N-(4-Fluoro-3-(3-(3-oxopiperazin-1-yl)imidazo[1,2-a]pyrimidin-7-yl)phenyl)pyrrolidine-1-carboxamide] | > 50.1 | > 50.1 | – | 1.1 | – | – | > 50.1 | > 50.1 | – | 815 (≈ 345 µg/mL) | 1.1 | solubility ([2]; supplementary csv): 820 µM (≈ 347 µg/mL)
O=C(Nc1cccc(-c2nc3ccccc3o2)c1)c1ccco1 [Compound 14] | > 50.1 | > 50.1 | – | 50 | – | – | – | – | – | – | – | EC50 (L. donovani amastigotes; THP-1, Table 3, at least three replicates, SD ≤0.4, read-out: INMAC (pEC50) (converted)): > 50.1 µM; INMAC pEC50 (L. donovani amastigotes; Table 3, at least three replicates, SD ≤0.4): no activity; EC50 (THP-1 cells; THP-1, Table 3, read-out: THP-1 (pEC50) (converted)): > 50.1 µM; Mouse CLi ([3]; Table 3): 50 mL/min/g
Cn1c(-c2cc(NC(=O)N3CCCC3)ccc2F)cc2cc(N3CCOCC3)cnc21 [Compound 19, N-[4-Fluoro-3-(1-methyl-5-morpholino-pyrrolo[2,3-b]pyridin-2-yl)phenyl]pyrrolidine-1-carboxamide] | > 50.1 | > 50.1 | – | 2.4 | inactive | 2.4 | – | – | – | – | – | EC50 (L. donovani amastigotes; [13]): > 50.1 µM; EC50 (THP-1 cells; [14]): > 50.1 µM
N-(3-(7-Phenylimidazo[1,2-b][1,2,4]triazin-3-yl)phenyl)pyrrolidine-1-carboxamide [Compound 27] | – | – | – | 3.3 | 5.9 | 3.3 | – | – | – | – | – | LdInMac pIC50 (L. donovani amastigotes): 5.9; THP-1 pEC50 (THP-1 cells; Table 5): <4.3; THP1 pIC50 (THP-1 cells; supplementary csv): <4.3; solubility ([2]; Table 5): 3.0 µM
O=C(Nc1cccc(-c2cc3ncc(-c4ccccc4)cn3n2)c1)N1CCCC1 [Compound 16, N-(3-(6-Phenylpyrazolo[1,5-a]pyrimidin-2-yl)phenyl)pyrrolidine-1-carboxamide] | > 50.1 | > 50.1 | – | 3.6 | inactive | 3.6 | – | – | – | – | – | EC50 (L. donovani amastigotes; [13]): > 50.1 µM; EC50 (THP-1 cells; [14]): > 50.1 µM
CN1CCOCC1c1cnc2nc(-c3cc(NC(=O)N4CCCC4)ccc3F)ccn12 (centres unmarked) [Compound 33, N-(4-Fluoro-3-(3-(4-methylmorpholin-3-yl)imidazo[1,2-a]pyrimidin-7-yl)phenyl)pyrrolidine-1-carboxamide] | – | 50.1 | – | 3.8 | – | – | 5.01 | 50.1 | – | 2340 (≈ 994 µg/mL) | 3.8 | solubility ([2]; supplementary csv): > 1000 µM

From publication PMC8154566, “Scaffold-Hopping Strategy on a Series of Proteasome Inhibitors Led to a Preclinical Candidate for the Treatment of Visceral Leishmaniasis” (Journal of Medicinal Chemistry, 2021)
